Reference: patent US20060069132A1, “Azolecarboxamide herbicides” (priority 2004, published 2006)

Legend:
winter barley = experiment: Test C postemergence herbicide test; format: in vivo, Hordeum vulgare
How it was run: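 After a postemergence application at 1 to 4 leaves (plants 2–18 cm high), or at 2 leaves for barnyardgrass in flooded paddy, plants stayed in the greenhouse for 12 to 14 days. Damage was then judged visually relative to control plants, with 100 indicating complete control.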

large crabgrass = experiment: Test E pre-/postemergence herbicide test; format: in vivo, Digitaria sanguinalis; conditions: Preemergence
How it was run: (§1)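 Ratings from 0 (no effect) to 100 (complete control) were assigned by visual comparison with untreated plants 12 to 14 days after application. Test chemicals, formulated with surfactant in a non-phytotoxic solvent blend, were applied to soil after planting or to foliage of 2–18 cm plants.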

green foxtail [1] = experiment: Test E pre-/postemergence herbicide test; format: in vivo, Setaria viridis; conditions: Preemergence
How it was run: as §1

johnsongrass = experiment: Test E pre-/postemergence herbicide test; format: in vivo, Sorghum halepense; conditions: Preemergence
How it was run: as §1

prickly sida = experiment: Test E pre-/postemergence herbicide test; format: in vivo, Sida spinosa; conditions: Preemergence
How it was run: as §1

southern sandbur = experiment: Test E pre-/postemergence herbicide test; format: in vivo, Cenchrus echinatus; conditions: Preemergence
How it was run: as §1

canarygrass = experiment: Test C postemergence herbicide test; format: in vivo, Phalaris minor
How it was run: (§2)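 Weeds and wheat were sprayed after emergence, at a height of 2 to 18 cm (1–4 leaves), and paddy barnyardgrass was flooded and treated at two leaves. Assessment took place 12–14 days later in the greenhouse on a 0-to-100 visual control scale. A dash means no result was obtained.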

common ragweed = experiment: Test E pre-/postemergence herbicide test; format: in vivo, Ambrosia elatior; conditions: Preemergence
How it was run: as §1

green foxtail [2] = experiment: Test C postemergence herbicide test; format: in vivo, Setaria viridis
How it was run: as §2

goosegrass = experiment: Test E pre-/postemergence herbicide test; format: in vivo, Eleusine indica; conditions: Preemergence
How it was run: as §1

dallisgrass = experiment: Test E pre-/postemergence herbicide test; format: in vivo, Paspalum dilatatum; conditions: Preemergence
How it was run: as §1

bipinnate beggarticks = experiment: Test E pre-/postemergence herbicide test; format: in vivo, Bidens bipinnata; conditions: Preemergence
How it was run: as §1

annual bluegrass = experiment: Test E pre-/postemergence herbicide test; format: in vivo, Poa annua; conditions: Preemergence
How it was run: as §1

[3] = Postemergence, 250 g ai/ha, scale 0 to 100, 0 no effect, 100 complete control
[4] = postemergence, 31 g ai/ha, scale 0 to 100
[5] = 250 g ai/ha, scale 0 (no effect) to 100 (complete control)
[6] = 500 g ai/ha, scale 0 (no effect) to 100 (complete control)
[7] = postemergence, 125 g ai/ha, scale 0 to 100
[8] = postemergence, 62 g ai/ha, scale 0 to 100

SMILES: Cc1nn(C(C)(C)C)nc1C(=O)Nc1cccc(C(=O)N2CC=CC2)c1 [Compound 393]
- Plant response rating, Barley, Winter (winter barley; Postemergence, 125 g ai/ha, scale 0 to 100, 0 no effect, 100 complete control): 35
- Plant response rating, Barley, Winter (winter barley; [3]): 35
- Plant response rating, Barley, Winter (winter barley; [4]): 20
- Plant response rating, Barley, Winter (winter barley; postemergence, 62 g ai/ha, scale 0 to 100 (0 no effect, 100 complete control)): 35
- Plant response rating, Crabgrass, Large (large crabgrass; 62 g ai/ha, scale 0 to 100): 10
- Plant response rating, Crabgrass, Large (large crabgrass; 125 g ai/ha, scale 0 to 100): 80
- Plant response rating, Crabgrass, Large (large crabgrass; [5]): 95
- Plant response rating, Crabgrass, Large (large crabgrass; [6]): 100
- Plant response rating, Foxtail, Green (green foxtail [1]; 62 g ai/ha, scale 0 to 100): 10
- Plant response rating, Foxtail, Green (green foxtail [1]; 125 g ai/ha, scale 0 to 100): 20
- Plant response rating, Foxtail, Green (green foxtail [1]; [5]): 70
- Plant response rating, Foxtail, Green (green foxtail [1]; [6]): 90
- Plant response rating, Johnsongrass (johnsongrass; 62 g ai/ha, scale 0 to 100): 30
- Plant response rating, Johnsongrass (johnsongrass; 125 g ai/ha, scale 0 to 100): 60
- Plant response rating, Johnsongrass (johnsongrass; [5]): 60
- Plant response rating, Johnsongrass (johnsongrass; [6]): 80
- Plant response rating, Prickly Sida (prickly sida; 62 g ai/ha, scale 0 to 100): 30
- Plant response rating, Prickly Sida (prickly sida; 125 g ai/ha, scale 0 to 100): 70
- Plant response rating, Prickly Sida (prickly sida; [5]): 75
- Plant response rating, Prickly Sida (prickly sida; [6]): 100
- Plant response rating, Sandbur (southern sandbur; 62 g ai/ha, scale 0 to 100): 0
- Plant response rating, Sandbur (southern sandbur; 125 g ai/ha, scale 0 to 100): 50
- Plant response rating, Sandbur (southern sandbur; [5]): 50
- Plant response rating, Sandbur (southern sandbur; [6]): 60
- Plant response rating, Canarygrass (canarygrass; [3]): 65
- Plant response rating, Canarygrass (canarygrass; [7]): 65
- Plant response rating, Canarygrass (canarygrass; [4]): 60
- Plant response rating, Canarygrass (canarygrass; [8]): 65
- Plant response rating, Ragweed (common ragweed; 62 g ai/ha, scale 0 to 100): 0
- Plant response rating, Ragweed (common ragweed; 125 g ai/ha, scale 0 to 100): 10
- Plant response rating, Ragweed (common ragweed; [5]): 20
- Plant response rating, Ragweed (common ragweed; [6]): 80
- Plant response rating, Foxtail, Green (green foxtail [2]; [3]): 65
- Plant response rating, Foxtail, Green (green foxtail [2]; [7]): 65
- Plant response rating, Foxtail, Green (green foxtail [2]; [8]): 60
- Plant response rating, Goosegrass (goosegrass; 62 g ai/ha, scale 0 to 100): 10
- Plant response rating, Goosegrass (goosegrass; 125 g ai/ha, scale 0 to 100): 50
- Plant response rating, Goosegrass (goosegrass; [5]): 95
- Plant response rating, Goosegrass (goosegrass; [6]): 95
- Plant response rating, Dallisgrass (dallisgrass; 62 g ai/ha, scale 0 to 100): 0
- Plant response rating, Dallisgrass (dallisgrass; 125 g ai/ha, scale 0 to 100): 10
- Plant response rating, Dallisgrass (dallisgrass; [5]): 75
- Plant response rating, Dallisgrass (dallisgrass; [6]): 85
- Plant response rating, Beggarticks, Bip. (bipinnate beggarticks; 62 g ai/ha, scale 0 to 100): 30
- Plant response rating, Beggarticks, Bip. (bipinnate beggarticks; 125 g ai/ha, scale 0 to 100): 100
- Plant response rating, Beggarticks, Bip. (bipinnate beggarticks; [5]): 100
- Plant response rating, Beggarticks, Bip. (bipinnate beggarticks; [6]): 100
- Plant response rating, Bluegrass (annual bluegrass; 62 g ai/ha, scale 0 to 100): 10
- Plant response rating, Bluegrass (annual bluegrass; 125 g ai/ha, scale 0 to 100): 30
- Plant response rating, Bluegrass (annual bluegrass; [5]): 75
- Plant response rating, Bluegrass (annual bluegrass; [6]): 95
